Our source for the IC50 values is patent publication US20220389003A1, “4-SUBSTITUTED INDOLE AND INDAZOLE SULFONAMIDO DERIVATIVES AS PARG INHIBITORS” (IDEAYA BIOSCIENCES, INC., priority 2019, published 2022).

Assay [1] has as its system HCC1806-XRCC1 KD (knock down) cells. In words: Cellular viability assay (Cell Titer-Glo). The conditions noted are these: 96 h, HCC1806-shXRCC1 cells, 4 days of incubation, read-out: PARGi cell viability. The assay is classed as cell-based. As to the method: HCC1806-XRCC1 KD (knock down) cells were plated at 2000 cells/well in 96-well white plates with clear flat bottom. After 24 hours, the compounds of the disclosure were added starting at 30 μM for a 9-point dose response curve at 1:3 dilution. The compounds of the disclosure were added by Tecan digital dispenser excluding the outermost wells of the plate. All treatments were done in duplicates. After 4 days of incubation, 50 ul of Cell Titer-Glo (Promega) was added per well. After incubation with the reagent for 15 minutes, luminescence was read using a plate reader (TECAN). Average values of DMSO treated wells in a plate was calculated. All data points were normalized to that of the average DMSO value. The % of control for each sample compared to DMSO treated control samples. Curves are fit as % of control vs. log [compound concentration] using a 4 parameter inhibition model (Levenberg-Marquardt algorithm):
Fit=(A+((B−A)/(1+((C/x)^D))))
(Cellular ATP, detected with luciferase, serves as a proxy for viable cell number.)

Assay [2] addresses T1, PARG (Homo sapiens, UniProt Q86W56). Put plainly: Inhibition of PARG enzymatic assay (TR-FRET enzymatic IC50 assay). Conditions: hPARG 250 pM, biotinylated-PARylated PARP substrate 30 nM. The assay is classed as biochemical. On the set-up: purchased Peak Proteins. As to the method: PARG enzyme was incubated with compound or vehicle (DMSO) and the biotinylated-PARylated PARP substrate in a microtiter plate. After adding detection antibody and streptavidin-europium, and then incubating, the plate was read for fluorescence intensity. The low control (DMSO) with low fluorescence intensity represents no inhibition of enzymatic reaction while the high control (no enzyme) with high fluorescence intensity represents full inhibition of enzymatic reaction.
• PARG • hPARG: 250 pM, His-tagged, Peak Proteins, 0.96 mg/mL (8.58 μM) • Substrate: 30 nM • Reaction time: 70 minutes • Substrate: hPARP1, His- and TEV-tagged, Peak Proteins, 14 μM • Detection Antibody: anti-His monoclonal antibody-ULight, Perkin Elmer catalog #TRF0105-M • Streptavidin-Europium: Perkin Elmer catalog #AD0062 • Assay buffer: 50 mM Tris-HCl pH 7.4, 50 mM KCl, 3 mM EDTA, 0.4 mM EGTA, 1 mM DTT, 0.01% Tween 20, 0.01% BSA • Temperature: 23° C. • Total volume: 20 μL
• 0% inhibition control: DMSO • 100% inhibition control: No enzyme
• 1. Transfer 5 μL of 3× final concentration of test compounds or DMSO to the appropriate wells of a microtiter plate. • 2. Centrifuge the plate at 1000 rpm for 1 minute. • 3. Transfer 5 μL of 3× final concentration of enzyme in assay buffer or assay buffer alone to the appropriate wells. • 4. Centrifuge the plate at 1000 rpm for 1 minute. • 5. Incubate the plate at room temperature for 1 hour. • 6. Transfer 5 μL of 3× substrate in assay buffer to all the test wells. • 7. Centrifuge the plate at 1000 rpm for 1 minute. • 8. Incubate the plate at room temperature for 10 minutes. • 9. Transfer 5 μL of 3× mixture of detection antibody and streptavidin-europium in assay buffer to all the test wells. • 10. Centrifuge the plate at 1000 rpm for 1 minute. • 11. Incubate the plate at room temperature for 1 hour. • 12. Read the plate on a plate reader (e.g., Infinite M1000).
A general note: Time-resolved FRET reads energy transfer from a long-lived donor to a nearby acceptor.

Assay [3] deals with T1, PARG. Put plainly: Inhibition of PARG cellular assay (PAR foci in HeLa cells after MMS). The assay is classed as cell-based. On the set-up: endogenous in cells; host or cells: HeLa. Conditions: compound 1 h then MMS 1 h. As to the method:
The ability of the compounds disclosed herein to inhibit PARG was determined as described below. Briefly, after treating HeLa cells with the compounds of the disclosure for 1 h, followed by treatment with DNA alkylating agent methylmethanesulfonate (MMS) for an additional 1 h, the cells were fixed in 3.7% formaldehyde. The cells were permeabilized in 0.5% Triton-X100, blocked in 5% goat serum, and incubated with mouse monoclonal antibody against poly (ADP) ribose (PAR) polymer overnight at 4° C. The cells were washed and incubated with an Alexafluor 488-linked secondary antibody together with a nuclear stain (Hoechst 33342) for an hour at room temperature. After washing, images of the cells were captured and analyzed on a high content imaging microscope and software. Two measurement of PAR chain were quantified with the mean intensity over background of the nuclear foci (fluorescent signal at 488 nm range 0.3-2.0 μm foci) quantified as PAR foci (PAR Foci IC50). The cells with a PAR foci signal >1.3 was considered as positive (PAR % positive IC50), and the percentage positive cells are quantified.

A value given as a limit tells only on which side of the number the result lay.

T1 sequence (Q86W56 whole entry): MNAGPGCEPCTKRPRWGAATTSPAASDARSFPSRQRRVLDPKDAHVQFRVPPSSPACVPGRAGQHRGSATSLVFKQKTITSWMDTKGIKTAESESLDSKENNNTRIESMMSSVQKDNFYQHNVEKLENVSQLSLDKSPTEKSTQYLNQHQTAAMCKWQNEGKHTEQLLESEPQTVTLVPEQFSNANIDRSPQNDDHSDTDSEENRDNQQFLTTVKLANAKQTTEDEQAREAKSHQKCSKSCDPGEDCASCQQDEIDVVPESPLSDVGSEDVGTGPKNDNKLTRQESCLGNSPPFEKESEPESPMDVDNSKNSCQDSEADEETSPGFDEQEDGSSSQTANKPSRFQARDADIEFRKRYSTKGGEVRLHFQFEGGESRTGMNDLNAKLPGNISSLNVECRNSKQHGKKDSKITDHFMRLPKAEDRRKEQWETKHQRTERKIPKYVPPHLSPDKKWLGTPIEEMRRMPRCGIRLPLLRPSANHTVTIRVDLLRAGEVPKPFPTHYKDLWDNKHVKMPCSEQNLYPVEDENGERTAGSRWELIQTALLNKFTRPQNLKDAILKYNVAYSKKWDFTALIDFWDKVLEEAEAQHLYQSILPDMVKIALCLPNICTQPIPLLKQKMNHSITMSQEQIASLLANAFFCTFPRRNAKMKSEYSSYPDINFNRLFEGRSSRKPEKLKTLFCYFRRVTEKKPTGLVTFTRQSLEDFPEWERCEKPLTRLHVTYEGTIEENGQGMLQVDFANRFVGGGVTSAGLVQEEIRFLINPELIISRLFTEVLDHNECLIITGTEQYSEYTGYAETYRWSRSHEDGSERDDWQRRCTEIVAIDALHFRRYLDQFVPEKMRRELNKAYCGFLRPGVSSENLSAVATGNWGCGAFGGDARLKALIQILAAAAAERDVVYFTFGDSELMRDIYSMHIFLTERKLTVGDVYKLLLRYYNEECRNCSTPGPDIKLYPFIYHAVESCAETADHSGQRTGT

On to `N#CC1(NS(=O)(=O)c2cc(N3CC[C@H]4COC[C@H]4C3)c3cnn(-c4nnc(C(F)F)s4)c3c2)CC1` (relative stereo) [Example 56, 1-[({1-[5-(difluoromethyl)(1,3,4-thiadiazol-2-yl)]-4-(cis-8-oxa-3-azabicyclo-[4.3.0]non-3-yl)-1H-indazol-6-yl}sulfonyl)amino]cyclopropanecarbonitrile], for which the results for the IC50 (in assay [1]; at PARG [2]) were 10000 to 20000 nM and 300 to 1000 nM, respectively.
For `N#CC1(NS(=O)(=O)c2cc(-c3ccc4cn[nH]c4c3)c3cnn(-c4nnc(C(F)F)s4)c3c2)CC1` [Example 2, 1-[({4-(1H-indazol-6-yl)-1-[5-(difluoromethyl)(1,3,4-thiadiazol-2-yl)]-1H-indazol-6-yl}sulfonyl)amino]cyclopropanecarbonitrile], in that order: 20000 to 30000 nM and 1000 to 10000 nM.
On to `CN(C)C(=O)c1ccc(-c2cc(S(=O)(=O)NC3(C#N)CC3)cc3c2cnn3-c2nnc(C(F)F)s2)cc1` [Example 3, [4-(1-[5-(difluoromethyl)(1,3,4-thiadiazol-2-yl)]-6-{[(cyanocyclopropyl)amino]sulfonyl}(1H-indazol-4-yl))phenyl]-N,N-dimethylcarboxamide], for which the results for the IC50 (in assay [1]; on PARG [2]) were 10000 to 20000 nM and 100 to 300 nM, respectively.
For `CN(C)C(=O)c1cccc(-c2cc(S(=O)(=O)NC3(C#N)CC3)cc3c2cnn3-c2nnc(C(F)F)s2)c1` [Example 4, [3-(1-[5-(difluoromethyl)(1,3,4-thiadiazol-2-yl)]-6-{[(cyanocyclopropyl)amino]sulfonyl}(1H-indazol-4-yl))phenyl]-N,N-dimethylcarboxamide] the same measures were 20000 to 30000 nM and 300 to 1000 nM.
Consider `N#CC1(NS(=O)(=O)c2cc(N3CCC4(COC4)C3)c3cnn(-c4nnc(C(F)F)s4)c3c2)CC1` [Example 34, 1-[({1-[5-(difluoromethyl)(1,3,4-thiadiazol-2-yl)]-4-(2-oxa-6-azaspiro[3.4]oct-6-yl)-1H-indazol-6-yl}sulfonyl)amino]cyclopropanecarbonitrile], for which the IC50 in assay [1] fell in the range of 20000 to 30000 nM; against PARG [2], 300 to 1000 nM.
`Cn1cnnc1N1CCN(c2cc(S(=O)(=O)NC3(C#N)CC3)cc3c2cnn3-c2nnc(C(F)F)s2)CC1` [Example 36, 1-[({1-[5-(difluoromethyl)(1,3,4-thiadiazol-2-yl)]-4-[4-(4-methyl(1,2,4-triazol-3-yl))piperazinyl]-1H-indazol-6-yl}sulfonyl)amino]cyclopropanecarbonitrile]: the IC50 in assay [1] was 10000 to 20000 nM; at PARG [2], ≤ 100 nM.
For `CNC(=O)C1CCN(c2cc(S(=O)(=O)NC3(C#N)CC3)cc3c2cnn3-c2nnc(C(F)F)s2)C1` (stereo not shown) [Example 53, [1-(1-[5-(difluoromethyl)(1,3,4-thiadiazol-2-yl)]-6-{[(cyanocyclopropyl)amino]sulfonyl}(1H-indazol-4-yl))pyrrolidin-3-yl]-N-methylcarboxamide], in that order: 10000 to 20000 nM and 100 to 300 nM.
With `CN(C)C(=O)C1CCN(c2cc(S(=O)(=O)NC3(C#N)CC3)cc3c2cnn3-c2nnc(C(F)F)s2)C1` (stereo not shown) [Example 54, [1-(1-[5-(difluoromethyl)(1,3,4-thiadiazol-2-yl)]-6-{[(cyanocyclopropyl)amino]sulfonyl}(1H-indazol-4-yl))pyrrolidin-3-yl]-N,N-dimethylcarboxamide], the IC50 in assay [1] lay within 10000 to 20000 nM; at PARG [2] it was 100 to 300 nM.
For `COC(=O)N1CCN(c2cc(S(=O)(=O)NC3(C#N)CC3)cc3c2cnn3-c2nnc(C(F)F)s2)CC1` [Example 58, methyl 4-(1-[5-(difluoromethyl)(1,3,4-thiadiazol-2-yl)]-6-{[(cyanocyclopropyl)amino]sulfonyl}-1H-indazol-4-yl)piperazinecarboxylate], in that order: 1000 to 10000 nM and ≤ 100 nM.
For `N#CC1(NS(=O)(=O)c2cc(N3CCN4C(=O)OC[C@H]4C3)c3cnn(-c4nnc(C(F)F)s4)c3c2)CC1` [Example 61, 1-[({4-((1R)-7-oxo-8-oxa-3,6-diazabicyclo[4.3.0]non-3-yl)-1-[5-(difluoromethyl) (1,3,4-thiadiazol-2-yl)]-1H-indazol-6-yl}sulfonyl)amino]cyclopropanecarbonitrile], in that order: 1000 to 10000 nM and ≤ 100 nM.
Take `CN1CCCN(c2cc(S(=O)(=O)NC3(C#N)CC3)cc3c2cnn3-c2nnc(C(F)F)s2)CC1` [Example 63, 1-[({1-[5-(difluoromethyl)(1,3,4-thiadiazol-2-yl)]-4-(4-methyl(1,4-diazaperhydroepinyl))-1H-indazol-6-yl}sulfonyl)amino]cyclopropanecarbonitrile]: the values for the IC50 (in assay [1]; against PARG [2]) were 10000 to 20000 nM and ≤ 100 nM, respectively.
For `N#CC1(NS(=O)(=O)c2cc(N3CCC(C(F)F)CC3)c3cnn(-c4nnc(C(F)F)s4)c3c2)CC1` [Example 64, 1-[({1-[5-(difluoromethyl)(1,3,4-thiadiazol-2-yl)]-4-[4-(difluoromethyl)piperidyl]-1H-indazol-6-yl}sulfonyl)amino]cyclopropanecarbonitrile] the same measures were 20000 to 30000 nM and 1000 to 10000 nM.
For `CNC(=O)N1CCN(c2cc(S(=O)(=O)NC3(C#N)CC3)cc3c2cnn3-c2nnc(C(F)F)s2)CC1` [Example 74, 4-(6-(N-(1-cyanocyclopropyl)sulfamoyl)-1-(5-(difluoromethyl)-1,3,4-thiadiazol-2-yl)-1H-indazol-4-yl)-N-methylpiperazine-1-carboxamide] the same measures were 1000 to 10000 nM and ≤ 100 nM.
Take `CNC(=O)C1CN(c2cc(S(=O)(=O)NC3(C#N)CC3)cc3c2cnn3-c2nnc(C(F)F)s2)C1` [Example 75, 1-(6-(N-(1-cyanocyclopropyl)sulfamoyl)-1-(5-(difluoromethyl)-1,3,4-thiadiazol-2-yl)-1H-indazol-4-yl)-N-methylazetidine-3-carboxamide]: the figures for the IC50 (in assay [1]; on PARG [2]) were 20000 to 30000 nM and 300 to 1000 nM, respectively.
With `N#CC1(NS(=O)(=O)c2cc(N3CCCC3)c3cnn(-c4nnc(C(F)F)s4)c3c2)CC1` [Example 101, 1-[({1-[5-(difluoromethyl)(1,3,4-thiadiazol-2-yl)]-4-pyrrolidinyl-1H-indazol-6-yl}sulfonyl)amino]cyclopropanecarbonitrile], the IC50 against PARG [3] and against PARG [2] was 1000 to 10000 nM in each case.
With `CN1CCN(c2cc(S(=O)(=O)NC3(C#N)CC3)cc3c2cnn3-c2nnc(C(F)F)s2)CC1` [Example 102, 1-[({1-[5-(difluoromethyl)(1,3,4-thiadiazol-2-yl)]-4-(4-methylpiperazinyl)-1H-indazol-6-yl}sulfonyl)amino]cyclopropanecarbonitrile], the IC50 against PARG [3] is 300 to 1000 nM; against PARG [2], 100 to 300 nM.
For `N#CC1(NS(=O)(=O)c2cc(N3CCC(F)(F)CC3)c3cnn(-c4nnc(C(F)F)s4)c3c2)CC1` [Example 105, 1-[({1-[5-(difluoromethyl)(1,3,4-thiadiazol-2-yl)]-4-(4,4-difluoropiperidyl)-1H-indazol-6-yl}sulfonyl)amino]cyclopropanecarbonitrile] the same measures were 300 to 1000 nM and 1000 to 10000 nM.
